# Experimental data taken from publication PMC11418212, “Characterization of four structurally diverse inhibitors of SUR2-containing KATP channels” (Channels, 2024).
# Where “and” joins values, the source holds several entries; their conditions need not be identical. Equal values may be shown once. Entries after “also recorded” stand apart in the source; their conditions may differ. Read-outs that look alike come from different tables or passages of the source.
# Experiments:
# Kir3.1/3.2 = molecular target: T1, Kir3.1/3.2 (Homo sapiens, UniProt P48051+P48549); design: method as in PMID 29895592; details: cited from earlier work
# T1 construct: expressed in transfected cells
# T1 sequence (P48549 1-501): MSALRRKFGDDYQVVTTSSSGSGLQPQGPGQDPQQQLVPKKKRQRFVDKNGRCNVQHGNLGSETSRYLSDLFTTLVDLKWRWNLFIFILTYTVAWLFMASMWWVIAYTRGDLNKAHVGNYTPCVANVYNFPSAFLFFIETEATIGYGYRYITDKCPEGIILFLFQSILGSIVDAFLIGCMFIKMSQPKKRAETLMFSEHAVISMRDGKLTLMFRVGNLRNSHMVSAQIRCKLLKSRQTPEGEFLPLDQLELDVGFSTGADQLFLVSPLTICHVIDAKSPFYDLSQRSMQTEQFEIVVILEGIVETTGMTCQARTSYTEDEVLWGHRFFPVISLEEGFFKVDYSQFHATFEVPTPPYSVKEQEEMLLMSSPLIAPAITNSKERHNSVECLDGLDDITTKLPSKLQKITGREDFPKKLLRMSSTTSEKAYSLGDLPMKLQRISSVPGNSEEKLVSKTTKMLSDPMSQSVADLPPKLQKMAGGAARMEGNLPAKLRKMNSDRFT
# T1 sequence (P48051 1-423): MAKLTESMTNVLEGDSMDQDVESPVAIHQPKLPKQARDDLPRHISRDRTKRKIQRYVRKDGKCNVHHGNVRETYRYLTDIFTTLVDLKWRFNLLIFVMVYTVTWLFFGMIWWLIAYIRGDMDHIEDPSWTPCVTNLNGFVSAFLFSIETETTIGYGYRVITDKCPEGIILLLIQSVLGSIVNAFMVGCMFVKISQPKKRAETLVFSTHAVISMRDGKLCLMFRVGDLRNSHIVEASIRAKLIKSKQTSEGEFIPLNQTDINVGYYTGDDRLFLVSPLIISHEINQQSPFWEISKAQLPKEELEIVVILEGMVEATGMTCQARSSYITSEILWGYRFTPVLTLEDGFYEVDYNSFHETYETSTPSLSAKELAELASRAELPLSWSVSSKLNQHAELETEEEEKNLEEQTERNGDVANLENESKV
# Kir3.1/3.4 = molecular target: T2, Kir3.1/3.4 (Homo sapiens, UniProt P48544+P48549); design: method as in PMID 29895592; details: cited from earlier work
# T2 construct: expressed in transfected cells
# T2 sequence (P48549 1-501): T1 sequence (P48549 1-501)
# T2 sequence (P48544 1-419): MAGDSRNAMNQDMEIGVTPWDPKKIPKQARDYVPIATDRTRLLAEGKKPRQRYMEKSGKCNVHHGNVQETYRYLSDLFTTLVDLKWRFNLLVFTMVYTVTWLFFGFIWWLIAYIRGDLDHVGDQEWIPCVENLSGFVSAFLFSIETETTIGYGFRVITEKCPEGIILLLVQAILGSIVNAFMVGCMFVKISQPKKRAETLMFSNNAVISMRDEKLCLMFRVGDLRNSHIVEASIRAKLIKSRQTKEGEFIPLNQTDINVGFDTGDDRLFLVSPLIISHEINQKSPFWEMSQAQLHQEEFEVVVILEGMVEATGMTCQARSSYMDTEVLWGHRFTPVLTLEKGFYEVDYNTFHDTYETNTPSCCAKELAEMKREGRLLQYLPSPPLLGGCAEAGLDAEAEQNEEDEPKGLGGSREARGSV
# Kir4.1 = molecular target: T3, Kir4.1 (Homo sapiens, UniProt P78508); design: method as in PMID 29895592; details: cited from earlier work
# T3 construct: expressed in transfected cells
# T3 sequence (P78508 1-379): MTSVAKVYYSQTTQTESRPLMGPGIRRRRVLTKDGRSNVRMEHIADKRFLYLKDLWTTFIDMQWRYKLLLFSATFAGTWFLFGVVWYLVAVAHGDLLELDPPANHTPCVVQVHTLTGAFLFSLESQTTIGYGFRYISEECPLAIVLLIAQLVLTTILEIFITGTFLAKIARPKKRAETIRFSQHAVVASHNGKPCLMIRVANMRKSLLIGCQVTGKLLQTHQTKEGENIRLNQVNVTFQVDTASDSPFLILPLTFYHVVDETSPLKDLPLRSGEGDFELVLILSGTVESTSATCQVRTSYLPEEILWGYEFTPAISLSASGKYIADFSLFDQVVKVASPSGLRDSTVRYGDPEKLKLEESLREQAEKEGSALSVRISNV
# Kir4.2 = molecular target: T4, Kir4.2 (Homo sapiens, UniProt Q99712); design: method as in PMID 29895592; details: cited from earlier work
# T4 construct: expressed in transfected cells
# T4 sequence (Q99712 1-375): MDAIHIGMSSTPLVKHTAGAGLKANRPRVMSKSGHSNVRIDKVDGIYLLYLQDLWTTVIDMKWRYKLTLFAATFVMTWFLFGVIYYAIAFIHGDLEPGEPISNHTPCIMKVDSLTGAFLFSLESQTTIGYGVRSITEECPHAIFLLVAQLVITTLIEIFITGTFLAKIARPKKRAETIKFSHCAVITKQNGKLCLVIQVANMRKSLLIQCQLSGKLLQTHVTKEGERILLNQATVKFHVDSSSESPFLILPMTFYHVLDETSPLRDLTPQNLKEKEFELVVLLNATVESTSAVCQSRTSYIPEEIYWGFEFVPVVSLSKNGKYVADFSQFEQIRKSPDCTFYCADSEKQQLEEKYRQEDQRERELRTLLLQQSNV
# Kir6.1/SUR2B [1] = molecular target: T5, Kir6.1/SUR2B (Homo sapiens, UniProt O60706); assay: Quantitative thallium flux assay, inhibition, stably transfected T-REx-HEK293 cells; format: cell-based
# T5 construct: expressed in transfected cells; Kir6.1 tetracycline-inducible, SUR2B constitutive
# T5 sequence (O60706 1-1549 isoform O60706-2, species assumed): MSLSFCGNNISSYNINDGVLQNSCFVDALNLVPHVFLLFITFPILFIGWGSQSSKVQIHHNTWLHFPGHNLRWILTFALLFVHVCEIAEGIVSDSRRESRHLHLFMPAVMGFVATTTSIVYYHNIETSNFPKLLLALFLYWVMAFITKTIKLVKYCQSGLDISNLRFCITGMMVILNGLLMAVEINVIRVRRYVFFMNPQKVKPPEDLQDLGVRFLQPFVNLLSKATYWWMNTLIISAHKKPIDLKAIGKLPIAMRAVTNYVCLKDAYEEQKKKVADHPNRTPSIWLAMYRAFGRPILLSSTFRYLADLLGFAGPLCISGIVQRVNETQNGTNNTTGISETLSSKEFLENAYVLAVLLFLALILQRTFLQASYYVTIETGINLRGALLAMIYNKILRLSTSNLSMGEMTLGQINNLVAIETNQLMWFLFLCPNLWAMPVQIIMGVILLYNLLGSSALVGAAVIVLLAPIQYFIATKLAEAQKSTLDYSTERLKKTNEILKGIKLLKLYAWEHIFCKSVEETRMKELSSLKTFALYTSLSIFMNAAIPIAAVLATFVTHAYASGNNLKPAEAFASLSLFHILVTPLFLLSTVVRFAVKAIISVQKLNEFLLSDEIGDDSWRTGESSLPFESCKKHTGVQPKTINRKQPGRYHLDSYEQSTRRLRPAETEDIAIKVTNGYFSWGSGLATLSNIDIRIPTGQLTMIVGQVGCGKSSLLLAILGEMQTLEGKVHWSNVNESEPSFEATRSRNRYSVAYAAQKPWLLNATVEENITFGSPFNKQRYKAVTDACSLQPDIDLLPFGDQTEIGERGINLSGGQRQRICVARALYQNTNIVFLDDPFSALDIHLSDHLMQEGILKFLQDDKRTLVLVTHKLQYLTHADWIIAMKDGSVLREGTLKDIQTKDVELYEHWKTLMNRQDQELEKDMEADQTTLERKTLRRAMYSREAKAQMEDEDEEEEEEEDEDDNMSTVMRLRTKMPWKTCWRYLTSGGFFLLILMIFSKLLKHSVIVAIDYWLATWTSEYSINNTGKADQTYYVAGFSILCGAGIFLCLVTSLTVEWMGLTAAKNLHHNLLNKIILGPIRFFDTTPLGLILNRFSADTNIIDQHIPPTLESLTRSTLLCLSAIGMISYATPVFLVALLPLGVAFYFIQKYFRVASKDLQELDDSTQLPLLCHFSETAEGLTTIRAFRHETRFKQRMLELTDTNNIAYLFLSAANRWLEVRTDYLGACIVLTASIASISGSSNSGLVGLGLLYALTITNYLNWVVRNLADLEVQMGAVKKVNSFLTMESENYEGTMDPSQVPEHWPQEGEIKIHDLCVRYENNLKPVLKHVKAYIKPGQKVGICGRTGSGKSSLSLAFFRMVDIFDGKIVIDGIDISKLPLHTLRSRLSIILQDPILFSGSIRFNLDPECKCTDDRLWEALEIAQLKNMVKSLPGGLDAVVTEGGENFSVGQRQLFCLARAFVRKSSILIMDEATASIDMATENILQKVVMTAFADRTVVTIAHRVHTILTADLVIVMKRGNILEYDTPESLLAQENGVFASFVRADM
# T5 sequence (Q15842 whole entry partner, species assumed): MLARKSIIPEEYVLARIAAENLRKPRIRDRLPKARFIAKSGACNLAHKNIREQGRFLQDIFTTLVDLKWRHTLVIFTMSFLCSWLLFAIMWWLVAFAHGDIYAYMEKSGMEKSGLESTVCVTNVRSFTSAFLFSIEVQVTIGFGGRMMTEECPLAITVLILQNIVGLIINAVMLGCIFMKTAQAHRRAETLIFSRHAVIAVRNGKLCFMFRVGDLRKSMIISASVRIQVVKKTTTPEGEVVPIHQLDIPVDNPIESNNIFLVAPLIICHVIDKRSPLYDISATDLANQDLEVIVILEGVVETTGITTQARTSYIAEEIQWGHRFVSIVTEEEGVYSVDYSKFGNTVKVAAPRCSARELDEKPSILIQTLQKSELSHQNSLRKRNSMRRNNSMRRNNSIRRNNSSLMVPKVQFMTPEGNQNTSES
# Kir6.2/SUR1 [2] = molecular target: T6, Kir6.2/SUR1 (Homo sapiens, UniProt Q09428); assay: as above; format: cell-based
# T6 sequence (Q09428 whole entry, species assumed): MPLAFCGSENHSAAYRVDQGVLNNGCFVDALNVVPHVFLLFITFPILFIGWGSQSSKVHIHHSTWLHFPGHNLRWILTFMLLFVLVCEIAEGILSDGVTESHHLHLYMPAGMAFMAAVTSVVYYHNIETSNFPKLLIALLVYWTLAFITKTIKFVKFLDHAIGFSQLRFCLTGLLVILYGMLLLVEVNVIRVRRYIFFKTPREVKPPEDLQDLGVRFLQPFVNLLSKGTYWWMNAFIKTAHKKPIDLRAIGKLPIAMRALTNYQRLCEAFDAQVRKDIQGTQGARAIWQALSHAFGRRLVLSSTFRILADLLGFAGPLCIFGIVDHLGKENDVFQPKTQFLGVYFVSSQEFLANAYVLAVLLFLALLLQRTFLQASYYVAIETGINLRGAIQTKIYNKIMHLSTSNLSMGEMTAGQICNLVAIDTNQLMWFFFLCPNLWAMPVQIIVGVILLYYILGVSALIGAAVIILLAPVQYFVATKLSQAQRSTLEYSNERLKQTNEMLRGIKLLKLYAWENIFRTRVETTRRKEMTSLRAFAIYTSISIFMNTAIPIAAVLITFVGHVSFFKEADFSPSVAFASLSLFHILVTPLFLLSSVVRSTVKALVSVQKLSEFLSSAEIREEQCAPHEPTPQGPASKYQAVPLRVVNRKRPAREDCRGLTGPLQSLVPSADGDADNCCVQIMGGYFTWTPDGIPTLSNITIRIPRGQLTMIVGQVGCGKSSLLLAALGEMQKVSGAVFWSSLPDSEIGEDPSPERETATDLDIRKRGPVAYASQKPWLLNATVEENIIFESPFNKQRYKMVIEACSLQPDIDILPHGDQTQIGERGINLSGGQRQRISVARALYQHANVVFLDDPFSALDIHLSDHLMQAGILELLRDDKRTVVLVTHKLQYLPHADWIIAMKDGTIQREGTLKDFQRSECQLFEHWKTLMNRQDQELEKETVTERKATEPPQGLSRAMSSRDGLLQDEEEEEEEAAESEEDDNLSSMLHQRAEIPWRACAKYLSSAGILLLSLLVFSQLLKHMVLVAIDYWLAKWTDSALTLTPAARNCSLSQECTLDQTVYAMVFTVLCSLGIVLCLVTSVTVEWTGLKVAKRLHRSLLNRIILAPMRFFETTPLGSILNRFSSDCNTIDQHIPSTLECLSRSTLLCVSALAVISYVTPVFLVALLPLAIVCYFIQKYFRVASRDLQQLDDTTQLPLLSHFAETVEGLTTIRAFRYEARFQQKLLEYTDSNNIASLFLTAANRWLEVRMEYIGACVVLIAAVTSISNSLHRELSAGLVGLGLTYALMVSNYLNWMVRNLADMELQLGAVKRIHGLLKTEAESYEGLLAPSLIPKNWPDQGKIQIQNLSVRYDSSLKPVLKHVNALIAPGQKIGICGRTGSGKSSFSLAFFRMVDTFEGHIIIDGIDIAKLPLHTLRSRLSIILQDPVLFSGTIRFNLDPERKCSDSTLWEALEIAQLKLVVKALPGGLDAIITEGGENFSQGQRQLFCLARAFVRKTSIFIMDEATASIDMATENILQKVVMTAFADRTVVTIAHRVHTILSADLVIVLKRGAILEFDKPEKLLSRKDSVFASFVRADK
# T6 sequence (Q14654 whole entry partner, species assumed): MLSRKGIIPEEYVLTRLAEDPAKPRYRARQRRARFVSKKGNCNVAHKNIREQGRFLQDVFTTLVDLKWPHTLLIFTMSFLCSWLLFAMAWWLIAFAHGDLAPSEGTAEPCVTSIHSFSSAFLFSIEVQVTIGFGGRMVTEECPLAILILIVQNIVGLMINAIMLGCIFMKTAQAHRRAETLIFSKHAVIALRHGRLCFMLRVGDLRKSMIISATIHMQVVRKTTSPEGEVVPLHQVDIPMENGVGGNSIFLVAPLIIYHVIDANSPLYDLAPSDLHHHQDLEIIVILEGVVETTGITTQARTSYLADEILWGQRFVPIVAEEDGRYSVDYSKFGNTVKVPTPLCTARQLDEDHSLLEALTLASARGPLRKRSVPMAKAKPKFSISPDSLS
# Protocol: Briefly, T-Rex-HEK293 cells underwent co-transfection with pcDNA5/TO-Kir6.1 or pcDNA5/TO-Kir6.2 (inducible expression) and pcDNA3.1-SUR2B or pcDNA3.1-SUR1 (constitutive expression) using Lipofectamine LTX following the manufacturer’s instructions and were then subjected to selection with antibiotics. Monoclonal cell lines were established through limiting dilution and characterization in thallium flux assays described below. […] KATP channel selectivity assays were performed in HEK293 cells transiently transfected with the indicated subunit using Lipofectamine LTX. The cells were incubated for 48 h after transfection before performing thallium flux assays.
# Thallium flux assays were conducted using the established methods. Stably transfected T-REx-HEK-293 cells expressing Kir6.2/SUR1 or Kir6.1/SUR2B were cultured overnight in polyamine-coated plates (black-walled, clear-bottomed; BD, Bedford, MA) at a density of 20,000 cells in 20 µl per well of cell culture media. The expression of Kir6.2/SUR1 or Kir6.1/SUR2B channels was induced by treating cells with 1 µg/ml tetracycline overnight. The following day, cells were rinsed with an assay buffer (Hanks’ Balanced Salt Solution supplied with 20 mM HEPES), loaded with the thallium-sensor dye Brilliant Thallos-AM AM (Ion Bioscience, San Marcos, TX) for 1 h, and then washed again with assay buffer to remove unincorporated dye. […] To activate KATP channels independent of activators with ATP-depletion method, cells were treated with a cocktail of metabolic inhibitors (2.5 mM sodium cyanide and 20 mM 2-deoxy glucose) for 25 min before imagine. Control and test compounds diluted freshly from DMSO stocks into assay buffer were added to wells for four minutes before adding 0.5 mM chloride-free thallium stimulus buffer (Ion Bioscience) to initiate thallium flux through the expressed KATP channels. Thallium flux was recorded from all 384-wells for 2 min before terminating the experiment. […] Selectivity assays against other Kir channels were performed as described previously.
# The kinetic fluorescence measurements (F) from each well were normalized to the initial reading (F0), producing static ratios (F/F0) that adjust for variations in cell count and dye uptake. […] The response (maxmin2) was determined by subtracting the min value from the max value. Percent inhibition was calculated by normalizing each well’s response to the positive and negative controls. Concentration–response curves were fitted using a single-site, four-parameter logistic function in Prism version 4.0 (GraphPad Software Inc., San Diego, CA) to calculate the half-maximal inhibitory concentration (IC50). Statistical comparisons of IC50 values were performed using an extra sum-of-squares F test and the Mann–Whitney test. A p-value of less than 0.05 was considered statistically significant.
# Kir6.1/SUR2B [3] = molecular target: T5, Kir6.1/SUR2B; assay: Thallium flux activation dose-response without channel pre-activation; format: cell-based; details: no channel pre-activation; doses up to 30 µM
# Protocol: (§1) Thallium flux assays were conducted using the established methods. Stably transfected T-REx-HEK-293 cells expressing Kir6.2/SUR1 or Kir6.1/SUR2B were cultured overnight in polyamine-coated plates (black-walled, clear-bottomed; BD, Bedford, MA) at a density of 20,000 cells in 20 µl per well of cell culture media. The expression of Kir6.2/SUR1 or Kir6.1/SUR2B channels was induced by treating cells with 1 µg/ml tetracycline overnight. The following day, cells were rinsed with an assay buffer (Hanks’ Balanced Salt Solution supplied with 20 mM HEPES), loaded with the thallium-sensor dye Brilliant Thallos-AM AM (Ion Bioscience, San Marcos, TX) for 1 h, and then washed again with assay buffer to remove unincorporated dye. The cell plate was subsequently placed in a Panoptic Kinetic Imaging Plate Reader (Wavefront Bioscience, Franklin, TN) and imaged at a frequency of 1 Hz using 482/35 nm (excitation) and 536/40 nm (emission) filter sets. Kir6.1/SUR2B channels were activated with 10 µM pinacidil, whereas Kir6.1/SUR1 was activated with 30 µM VU0071063 [34]. To activate KATP channels independent of activators with ATP-depletion method, cells were treated with a cocktail of metabolic inhibitors (2.5 mM sodium cyanide and 20 mM 2-deoxy glucose) for 25 min before imagine. Control and test compounds diluted freshly from DMSO stocks into assay buffer were added to wells for four minutes before adding 0.5 mM chloride-free thallium stimulus buffer (Ion Bioscience) to initiate thallium flux through the expressed KATP channels. Thallium flux was recorded from all 384-wells for 2 min before terminating the experiment. […] Selectivity assays against other Kir channels were performed as described previously.
# (§2) We therefore systematically explored this possibility in dose–response experiments against Kir6.2/SUR1 in the absence of channel pre-activation. Kir6.1/SUR2B was also evaluated for comparison.
# (§3) Figure 6. Paradoxical activation of Kir6.2/SUR1. […] Fluorescence intensity at each dose was normalized to that in the absence of drug. […] (b) Activities of indicated compounds at 30 μM toward Kir6.1/SUR2B normalized to that of 30 μM pinacidil. […] (d) Activities of indicated compounds at 30 μM toward Kir6.2/SUR1 normalized to that of 30 μM VU0071063.
# Kir6.2/SUR1 [4] = molecular target: T6, Kir6.2/SUR1; assay: as above; format: cell-based; details: no channel pre-activation; doses up to 30 µM
# Protocol: as §1, §2, §3
# Kir6.1/SUR2B [5] = molecular target: T5, Kir6.1/SUR2B; design: method as in PMID 38302135; details: previously reported; cited from earlier work
# Kir6.2/SUR1 [6] = molecular target: T6, Kir6.2/SUR1; design: method as in PMID 38302135; details: previously reported; cited from earlier work
# [7] = tested on: isolated mouse ductus arteriosus vessels; design: method as in PMID 38302135; details: compared with glibenclamide; cited from earlier work
# [8] = ATP depletion with sodium cyanide and 2-deoxy-glucose, read-out: IC50 Kir6.1/SUR2B, ATP depletion
# [9] = channels activated with 10 µM pinacidil, read-out: IC50 Kir6.1/SUR2B, pinacidil activation
# [10] = thallium flux, ATP depletion with sodium cyanide and 2-deoxy-glucose
SMILES,Efficacy of inhibition of Kir3.1/3.2 (Kir3.1/3.2; at 30 µM),IC50 (Kir3.1/3.2),Efficacy of inhibition of Kir3.1/3.4 (Kir3.1/3.4; at 30 µM),IC50 (Kir3.1/3.4),Efficacy of inhibition of Kir4.1 (Kir4.1; at 30 µM),IC50 (Kir4.1),IC50 (Kir4.2),IC50 (Kir6.1/SUR2B [1]; [8]),IC50 (Kir6.1/SUR2B [1]; [9]),"Effect on Kir6.2/SUR1 channel activity (Kir6.2/SUR1 [2]; VU0071063 activation or ATP depletion, full range of doses tested (up to 30 µM))",IC50 (Kir6.2/SUR1 [2]; [10]),"IC50 Kir6.2/SUR1, ATP depletion (Kir6.2/SUR1 [2]; [10])","IC50 Kir6.2/SUR1, VU0071063 activation (Kir6.2/SUR1 [2]; thallium flux, in the presence of 10 uM VU0071063)",Activation of Kir6.1/SUR2B (Kir6.1/SUR2B [3]),Activation of Kir6.2/SUR1 (Kir6.2/SUR1 [4]),IC50 (Kir6.1/SUR2B [5]),Activity toward Kir6.2/SUR1 (Kir6.2/SUR1 [6]),Potency for contraction of ductus arteriosus vessels [7]
CC(C)c1ccc(OCC(=O)NC2CC(C)(C)NC(C)(C)C2)c(Br)c1 [VU0134992],greater than 90%,2500 nM,greater than 90%,3100 nM,greater than 90%,5200 nM,8200 nM,–,–,–,–,–,–,–,–,–,–,–
"Cc1nc(-c2cccs2)sc1CNC(=O)Nc1cccs1 [VU0542270, reference compound]",–,–,–,–,–,–,–,31 nM and 30 nM,100 nM,no effect,> 30000 nM,no fit,no fit,failed to activate,failed to activate; also recorded: did not,~100 nM,no apparent activity,same potency as glibenclamide
"COc1ccc(Cl)cc1C(=O)NCCc1ccc(S(=O)(=O)NC(=O)NC2CCCCC2)cc1 [Glibenclamide, glibenclamide, reference compound]",–,–,–,–,–,–,–,51 nM and 50 nM,33 nM and 30 nM,–,–,–,–,failed to activate,–,–,–,–
